Data: publication PMC10488051, “Screening, Synthesis and Biochemical Characterization of SARS-CoV-2 Protease Inhibitors” (International Journal of Molecular Sciences, 2023)
“And” between values parts separate entries of the source, which are not always exact repeats. Identical values can stand only once. “Also recorded” adds a separate entry of the source.

Target: SARS-CoV-2 PL^pro (Severe acute respiratory syndrome coronavirus 2, UniProt P0DTD1)
Test: PL^pro enzymatic inhibition assay (FRET-based, Z-RLRGG-AMC substrate)
Assay type: biochemical
Conditions: Table 1 thiazole series; enzymatic inhibition assay, 25 °C, pH 7.5; uncertainty approx. 1.8-fold of Kd
`CC(=O)c1sc(N(CCC(=O)O)c2cccc3ccccc23)nc1C` [Compound 19] showed a Kd of no less than 50 µM. `CCOC(=O)c1sc(N(CCC(=O)O)c2cccc3ccccc23)nc1C` [Compound 20] showed a Kd of 29 µM. With `Cc1nc(N(CCC(=O)O)c2cccc3ccccc23)sc1C(=O)/C=C/c1ccccc1` [Compound 21a] the Kd was 110 µM. In the case of `Cc1nc(N(CCC(=O)O)c2cccc3ccccc23)sc1C(=O)/C=C/c1cccc2ccccc12` [Compound 22], the Kd is reported as 5.2 µM. With `C/C(=N/Nc1ccccc1)c1sc(N(CCC(=O)O)c2cccc3ccccc23)nc1C` [Compound 23] the Kd was 75 µM. For `C/C(=N/N=C(/C)c1sc(N(CCC(=O)O)c2cccc3ccccc23)nc1C)c1sc(N(CCC(=O)O)c2cccc3ccccc23)nc1C` [Compound 24], the Kd was 8 µM. `Cc1ccc(N(CCC(=O)O)c2nc(C)c(C(=O)C=Cc3ccccc3)s2)cc1` [Compound 25a] showed a Kd of 83 µM. In the case of `Cc1ccc(N(CCC(=O)O)c2nc(C)c(C(=O)C=Cc3ccc(Cl)cc3)s2)cc1` [Compound 25b], the Kd is reported as 66 µM. Compound `Cc1ccc(N(CCC(=O)O)c2nc(C)c(C(=O)C=Cc3ccc(F)cc3)s2)cc1` [Compound 25c] has a Kd of 58 µM. In the case of `Cc1ccc(N(CCC(=O)O)c2nc(-c3ccc(Cl)cc3)c(/C=N\Nc3ccccc3)s2)cc1` [Compound 27a], the Kd is reported as 35 µM. With `Cc1ccc(N(CCC(=O)O)c2nc(-c3ccc(F)cc3)c(/C=N\Nc3ccccc3)s2)cc1` [Compound 27b] the Kd was no less than 50 µM. In the case of `Cc1ccc(N(CCC(=O)O)c2nc(-c3ccc(C#N)cc3)c(/C=N\Nc3ccccc3)s2)cc1` [Compound 27c], the Kd is reported as 15 µM. `Cc1ccc(N(CCC(=O)O)c2nc(-c3ccc(C#N)cc3)c(/C=N\NC(N)=S)s2)cc1` [Compound 28] showed a Kd of 8.8 µM. For `Cc1ccc(N(CCC(=O)O)c2nc(-c3ccc(C#N)cc3)c(C=O)s2)cc1` [Compound 29], the Kd was greater than 200 µM. With `Nc1ccc(N(CCC(=O)O)c2nc(-c3ccc(Cl)cc3)cs2)cc1` [Compound 30a] the Kd was no less than 50 µM. In the case of `Nc1ccc(N(CCC(=O)O)c2nc(-c3ccc(F)cc3)cs2)cc1` [Compound 30b], the Kd is reported as no less than 50 µM. Compound `N#Cc1ccc(-c2csc(N(CCC(=O)O)c3ccc(N)cc3)n2)cc1` [Compound 30c] has a Kd of 32 µM. `Nc1ccc(N(CCC(=O)O)c2nc(-c3ccc(C(F)(F)F)cc3)cs2)cc1` [Compound 30d] gave a Kd of no less than 50 µM. Work on `O=C(O)CCN(c1nc(C(=O)/C=C/c2ccccc2)c(C(=O)/C=C/c2ccccc2)s1)c1cccc2ccccc12` [Compound 31] yielded a Kd of no less than 50 µM.

Same assay, conditions: Table 2 disulfide compounds; enzymatic inhibition assay, 25 °C, pH 7.5; PL^pro dialyzed to avoid DTT
`Nc1ccccc1SSc1ccccc1N` [Compound 32] gave a Kd of 0.54 µM. With `O=C(O)CCNc1ccccc1SSc1ccccc1NCCC(=O)O` [Compound 33] the Kd was 2 µM. `NNC(=O)CCNc1ccccc1SSc1ccccc1NCCC(=O)NN` [Compound 34] showed a Kd of 0.43 µM. `O=C(CCNc1ccccc1SSc1ccccc1NCCC(=O)N/N=C/c1cccs1)N/N=C/c1cccs1` [Compound 35] gave a Kd of 2.5 µM. `Cc1ccc(C)n1NC(=O)CCNc1ccccc1SSc1ccccc1NCCC(=O)Nn1c(C)ccc1C` [Compound 36] gave a Kd of 1.9 µM. Work on `O=C1CCN(c2ccccc2SSc2ccccc2N2CCC(=O)NC2=O)C(=O)N1` [Compound 37] yielded a Kd of 0.63 µM. With `O=C(CNc1ccccc1SSc1ccccc1NCC(=O)c1ccccc1)c1ccccc1` [Compound 38] the Kd was 1.9 µM.

Same assay, conditions: ratio of Kd values
With `NNC(=O)CCNc1ccccc1SSc1ccccc1NCCC(=O)NN` [Compound 34] the “Fold more potent for PL^pro than M^pro” value was “eight times”.

Same assay, conditions: vs compound 4
With `Cc1nc(N(CCC(=O)O)c2cccc3ccccc23)sc1C(=O)/C=C/c1cccc2ccccc12` [Compound 22] the “Fold stronger PL^pro affinity than compound 4” value was “more than 20 fold”.

Target: SARS-CoV-2 M^pro (Severe acute respiratory syndrome coronavirus 2, UniProt P0DTD1)
Test: biochemical
Assay type: biochemical
Conditions: not given
In the case of `CC(=O)c1sc(N(CCC(=O)O)c2cccc3ccccc23)nc1C` [Compound 19], the Kd is reported as greater than 200 µM. Compound `CCOC(=O)c1sc(N(CCC(=O)O)c2cccc3ccccc23)nc1C` [Compound 20] has a Kd greater than 200 µM. Work on `Cc1nc(N(CCC(=O)O)c2cccc3ccccc23)sc1C(=O)/C=C/c1ccccc1` [Compound 21a] yielded a Kd greater than 200 µM. Compound `Cc1nc(N(CCC(=O)O)c2cccc3ccccc23)sc1C(=O)/C=C/c1cccc2ccccc12` [Compound 22] has a Kd of 10 µM. For `C/C(=N/Nc1ccccc1)c1sc(N(CCC(=O)O)c2cccc3ccccc23)nc1C` [Compound 23], the Kd was greater than 200 µM. Work on `C/C(=N/N=C(/C)c1sc(N(CCC(=O)O)c2cccc3ccccc23)nc1C)c1sc(N(CCC(=O)O)c2cccc3ccccc23)nc1C` [Compound 24] yielded a Kd greater than 200 µM. `Cc1ccc(N(CCC(=O)O)c2nc(C)c(C(=O)C=Cc3ccccc3)s2)cc1` [Compound 25a] gave a Kd greater than 200 µM. Work on `Cc1ccc(N(CCC(=O)O)c2nc(C)c(C(=O)C=Cc3ccc(Cl)cc3)s2)cc1` [Compound 25b] yielded a Kd greater than 200 µM. Work on `Cc1ccc(N(CCC(=O)O)c2nc(C)c(C(=O)C=Cc3ccc(F)cc3)s2)cc1` [Compound 25c] yielded a Kd greater than 200 µM. `Cc1ccc(N(CCC(=O)O)c2nc(-c3ccc(Cl)cc3)c(/C=N\Nc3ccccc3)s2)cc1` [Compound 27a] gave a Kd greater than 200 µM. With `Cc1ccc(N(CCC(=O)O)c2nc(-c3ccc(F)cc3)c(/C=N\Nc3ccccc3)s2)cc1` [Compound 27b] the Kd was greater than 200 µM. Compound `Cc1ccc(N(CCC(=O)O)c2nc(-c3ccc(C#N)cc3)c(/C=N\Nc3ccccc3)s2)cc1` [Compound 27c] has a Kd greater than 200 µM. `Cc1ccc(N(CCC(=O)O)c2nc(-c3ccc(C#N)cc3)c(/C=N\NC(N)=S)s2)cc1` [Compound 28] showed a Kd of no less than 50 µM. `Cc1ccc(N(CCC(=O)O)c2nc(-c3ccc(C#N)cc3)c(C=O)s2)cc1` [Compound 29] gave a Kd greater than 200 µM. With `Nc1ccc(N(CCC(=O)O)c2nc(-c3ccc(Cl)cc3)cs2)cc1` [Compound 30a] the Kd was greater than 200 µM. With `Nc1ccc(N(CCC(=O)O)c2nc(-c3ccc(F)cc3)cs2)cc1` [Compound 30b] the Kd was greater than 200 µM. `N#Cc1ccc(-c2csc(N(CCC(=O)O)c3ccc(N)cc3)n2)cc1` [Compound 30c] gave a Kd greater than 200 µM. For `Nc1ccc(N(CCC(=O)O)c2nc(-c3ccc(C(F)(F)F)cc3)cs2)cc1` [Compound 30d], the Kd was greater than 200 µM. `O=C(O)CCN(c1nc(C(=O)/C=C/c2ccccc2)c(C(=O)/C=C/c2ccccc2)s1)c1cccc2ccccc12` [Compound 31] gave a Kd of no less than 50 µM.

Same assay, conditions: Table 2 disulfide compounds; enzymatic inhibition assay, 25 °C, pH 7.5
Work on `Nc1ccccc1SSc1ccccc1N` [Compound 32] yielded a Kd of 2.8 µM. For `O=C(O)CCNc1ccccc1SSc1ccccc1NCCC(=O)O` [Compound 33], the Kd was greater than 200 µM. With `NNC(=O)CCNc1ccccc1SSc1ccccc1NCCC(=O)NN` [Compound 34] the Kd was 3.5 µM. With `O=C(CCNc1ccccc1SSc1ccccc1NCCC(=O)N/N=C/c1cccs1)N/N=C/c1cccs1` [Compound 35] the Kd was greater than 200 µM. Work on `Cc1ccc(C)n1NC(=O)CCNc1ccccc1SSc1ccccc1NCCC(=O)Nn1c(C)ccc1C` [Compound 36] yielded a Kd greater than 200 µM. For `O=C1CCN(c2ccccc2SSc2ccccc2N2CCC(=O)NC2=O)C(=O)N1` [Compound 37], the Kd was greater than 200 µM. `O=C(CNc1ccccc1SSc1ccccc1NCC(=O)c1ccccc1)c1ccccc1` [Compound 38] gave a Kd greater than 200 µM.

Target: PL^pro (Severe acute respiratory syndrome coronavirus 2, UniProt P0DTD1)
Test: not given
Assay type: binding
Conditions: no reducing agents; 1 h incubation at room temperature
For `Nc1ccccc1SSc1ccccc1N` [Compound 32], the “Covalent binding to PL^pro by mass spectrometry” value was “covalent binding of 32 with PL^pro and M^pro was confirmed”. For `NNC(=O)CCNc1ccccc1SSc1ccccc1NCCC(=O)NN` [Compound 34], the “Covalent binding to PL^pro by mass spectrometry” value was “covalent binding of compound 34 to PLpro”.

Same assay, conditions: protein/ligand molar ratio 1:5 for 32
With `Nc1ccccc1SSc1ccccc1N` [Compound 32] the “Mass shift of PL^pro-compound adduct (major peak)” value was 123.13 Da.

Target: T1, M^pro (Severe acute respiratory syndrome coronavirus 2, UniProt P0DTD1)
Test: not given
Assay type: binding
Conditions: no reducing agents; 1 h incubation at room temperature
In the case of `Nc1ccccc1SSc1ccccc1N` [Compound 32], the “Covalent binding to M^pro by mass spectrometry” value is reported as “covalent binding of 32 with PL^pro and M^pro was confirmed”.

Same assay, conditions: protein/ligand molar ratio 1:10
In the case of `Nc1ccccc1SSc1ccccc1N` [Compound 32], the “Mass shift of M^pro-compound adduct (major peak)” value is reported as 245.73 Da and 245.7 Da.

Target: wt PL^pro (Severe acute respiratory syndrome coronavirus 2, UniProt P0DTD1)
Test: not given
Conditions: not given
For `Nc1ccccc1SSc1ccccc1N` [Compound 32], the “Thermal effect (Tm) on wild-type PL^pro” value was “strongly destabilized the native PL^pro; also recorded: thermal destabilization effect (Tm decrease) induced by 32 is seen only for wild-type PL^pro”.

System: SARS-CoV-2
Test: not given
Conditions: patients with mild-to-moderate COVID-19; cited from earlier work
In the case of `Cn1cnc(Cn2c(=O)[nH]/c(=N\c3cc4cn(C)nc4cc3Cl)n(Cc3cc(F)c(F)cc3F)c2=O)n1` [S-217622], the “Antiviral efficacy in patients” value is given as “rapid and favorable antiviral efficacy”.

Target: T1, M^pro
Test: not given
Conditions: cited from earlier work
For `CCN(CC)C(=S)SSC(=S)N(CC)CC` [disulfiram], the “Covalent interaction with cysteine residues of M^pro” value is given as “interact covalently with cysteine residues of M^pro”.
